Results on 28 molecules are retold here after patent US6906095B2, “Indolylalkylidenehydrazine-carboximidamide derivatives as 5-hydroxytryptamine-6 ligands” (Wyeth, priority 2002, dated 2005).

As usually defined, the inhibition is the percentage by which the read-out fell short of the control. The term Ki denotes a dissociation constant, usually derived from enzyme kinetics or from competition with a known ligand. A low value points to tighter binding. One may read the % Inhibition as the drop in the measured response relative to a control, in per cent. The low end stands for little suppression, the high end for strong suppression.

The assay addresses T1, human cloned 5-HT6 receptors (Homo sapiens, UniProt P50406).
T1 construct: expressed in transfected cells; host or cells: Hela cells
Nature of the assay: 5-HT6 binding affinity, [3H]-LSD displacement in membranes of Hela cells. As to conditions: for inhibition at 1 µM: test compound dose 1000 nM, read-out: % Inhibition; for inhibition at 0.01 µM: test compound dose 10 nM. As for the experimental part:
The affinity of test compounds for the serotonin 5-HT6 receptor is evaluated in the following manner. Cultured Hela cells expressing human cloned 5-HT6 receptors are harvested and centrifuged at low speed (1,000×g) for 10.0 min to remove the culture media. The harvested cells are suspended in half volume of fresh physiological phosphate buffered saline solution and recentrifuged at the same speed. This operation is repeated. The collected cells are then homogenized in ten volumes of 50 mM Tris.HCl (pH 7.4) and 0.5 mM EDTA. The homogenate is centrifuged at 40,000×g for 30.0 min and the precipitate is collected. The obtained pellet is resuspended in 10 volumes of Tris.HCl buffer and recentrifuged at the same speed. The final pellet is suspended in a small volume of Tris.HCl buffer and the tissue protein content is determined in aliquots of 10-25 μl volumes. Bovine Serum Albumin is used as the standard in the protein determination according to the method described in Lowry et al., J. Biol. Chem., 193:265 (1951). The volume of the suspended cell membranes is adjusted to give a tissue protein concentration of 1.0 mg/ml of suspension. The prepared membrane suspension (10 times concentrated) is aliquoted in 1.0 ml volumes and stored at −70° C. until used in subsequent binding experiments.
The reaction is allowed to proceed in the dark for 120 min at room temperature, at which time, the bound ligand-receptor complex is filtered off on a 96 well unifilter with a Packard Filtermate® 196 Harvester. The bound complex caught on the filter disk is allowed to air dry and the radioactivity is measured in a Packard TopCount® equipped with six photomultiplier detectors, after the addition of 40.0 μl Microscint®-20 scintillant to each shallow well. The unifilter plate is heat-sealed and counted in a PackardTopCount® with a tritium efficiency of 31.0%.
Specific binding to the 5-HT6 receptor is defined as the total radioactivity bound less the amount bound in the presence of 10.0 μM unlabeled methiothepin. Binding in the presence of varying concentrations of test compound is expressed as a percentage of specific binding in the absence of test compound. The results are plotted as logit % bound versus log concentration of test compound. Nonlinear regression analysis of data points with a computer assisted program Prism® yields both the IC50 and the Ki values of test compounds with 95% confidence limits.
The amount of displacement by the test compound is given in percent (%) inhibition and is derived from the following equation: [formula] where B0 is the amount of CPM bound in the presence of the testing agent. NSB represents the CPM bound in the presence of a saturating concentration of a displacer and TB represents the total amount of CPM bound at zero (0) concentration of test compound.
Alternatively, a linear regression line of decline of data points is plotted, from which the IC50 value can be read off and the Ki value determined by solving the following equation: [formula] where L is the concentration of the radioactive ligand used and KD is the dissociation constant of the ligand for the receptor, both expressed in nM.

[1] abbreviates: test compound dose 100 nM, [3H]-LSD 3.0 nM.

T1 sequence (P50406 whole entry): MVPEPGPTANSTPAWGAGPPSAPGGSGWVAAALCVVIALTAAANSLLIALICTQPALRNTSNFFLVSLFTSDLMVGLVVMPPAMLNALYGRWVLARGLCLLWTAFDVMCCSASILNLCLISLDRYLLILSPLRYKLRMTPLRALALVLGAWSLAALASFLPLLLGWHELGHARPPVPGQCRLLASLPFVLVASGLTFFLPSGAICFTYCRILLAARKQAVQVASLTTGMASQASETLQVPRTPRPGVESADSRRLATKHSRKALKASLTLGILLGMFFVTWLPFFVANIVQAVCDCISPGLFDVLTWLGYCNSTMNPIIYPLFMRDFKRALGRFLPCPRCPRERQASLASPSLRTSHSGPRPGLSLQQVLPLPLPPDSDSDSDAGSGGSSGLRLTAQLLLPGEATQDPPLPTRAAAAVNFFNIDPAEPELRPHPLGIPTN

For the molecule `CCCCC(=NNC(=N)N)c1cn(S(=O)(=O)c2ccc3ccccc3c2)c2cc(F)ccc12` [Example 110, 2-{1-[6-fluoro-1-(2-naphthylsulfonyl)-1H-indol-3-yl]pentylidene}hydrazinecarboximidamide], under “[3H]-LSD 3.0 nM”, the inhibition at 1 µM is 60.2%.

Regarding `CC(=NNC(=N)N)c1cn(S(=O)(=O)c2ccc3ccccc3c2)c2ccccc12` [Example 64, 2-{1-[1-(2-naphthylsulfonyl)-1H-indol-3-yl]ethylidene}hydrazinecarboximidamide], the inhibition at 1 µM ([3H]-LSD 3.0 nM) came out at 89.6%.

In the case of `CC(=NNC(=N)N)c1cn(S(=O)(=O)c2ccc(N)cc2)c2ccccc12` [Example 23, 2-(1-{1-[(4-aminophenyl)sulfonyl]-1H-indol-3-yl}ethylidene)hydrazinecarboximidamide], the Ki was 0.002 µM. This molecule also came in with an inhibition at 0.1 µM under setting [1] of 92.9%.

As for `CC(=NNC(=N)N)c1c(-c2ccc(Cl)cc2)n(S(C)(=O)=O)c2ccccc12` [Example 90, 2-{1-[2-(4-chlorophenyl)-1-(methylsulfonyl)-1H-indol-3-yl]ethylidene}hydrazinecarboximidamide], under “[3H]-LSD 3.0 nM”, the inhibition at 1 µM is 63.5%.

For the molecule `CC(=NNC(=N)N)c1cn(S(=O)(=O)c2ccccc2)c2ccc(I)cc12` [Example 17, 2-{1-[5-iodo-1-(phenylsulfonyl)-1H-indol-3-yl]ethylidene}hydrazinecarboximidamide], the inhibition at 0.01 µM ([3H]-LSD 3.0 nM) was determined as 52%.

Consider `CC(=NNC(=N)N)c1c(-c2ccc(Cl)cc2)n(S(=O)(=O)c2ccccc2)c2ccccc12` [Example 95, 2-{1-[2-(4-chlorophenyl)-1-(phenylsulfonyl)-1H-indol-3-yl]ethylidene}hydrazinecarboximidamide], for which the inhibition at 1 µM ([3H]-LSD 3.0 nM) amounted to 89.6%.

In turn, `CCCCS(=O)(=O)n1cc(C(C)=NNC(=N)N)c2ccc(F)cc21` [Example 103, 2-{1-[1-(butylsulfonyl)-6-fluoro-1H-indol-3-yl]ethylidene}hydrazinecarboximidamide] displayed an inhibition at 0.1 µM under setting [1] of 69.4%.

With `CCC(=NNC(=N)N)c1cn(S(=O)(=O)c2ccccc2)c2ccc(F)cc12` [Example 118, 2-{1-[5-fluoro-1-(phenylsulfonyl)-1H-indol-3-yl]propylidene}hydrazinecarboximidamide], the affinity, expressed as Ki, was 0.007 µM.

As for `CCCCC(=NNC(=N)N)c1cn(S(C)(=O)=O)c2ccc(Cl)cc12` [Example 73, 2-{1-[5-chloro-1-(methylsulfonyl)-1H-indol-3-yl]pentylidene}hydrazinecarboximidamide], the inhibition at 1 µM ([3H]-LSD 3.0 nM) is 71%.

Turning to `CCC(=NNC(=N)N)c1cn(S(=O)(=O)c2ccc3ccccc3c2)c2ccc(F)cc12` [Example 120, 2-{1-[5-fluoro-1-(2-naphthylsulfonyl)-1H-indol-3-yl]propylidene}hydrazinecarboximidamide], affinity was put at a Ki of 0.085 µM.

Under setting [1], `CC(=NNC(=N)N)c1cn(S(=O)(=O)c2c(Cl)sc(Cl)c2Br)c2ccccc12` [Example 27, 2-(1-{1-[(4-bromo-2,5-dichlorothien-3-yl)sulfonyl]-1H-indol-3-yl}ethylidene)hydrazinecarboximidamide] gave an inhibition at 0.1 µM of 33.8%.

Turning to `CCCNC(=N)NN=C(C)c1cn(S(=O)(=O)c2ccccc2)c2ccccc12` [Example 124, 2-{1-[1-(phenylsulfonyl)-1H-indol-3-yl]ethylidene}-N-propylhydrazinecarboximidamide], the inhibition at 0.1 µM under setting [1] is 75.2%.

Regarding `CC(=NNC(=N)N)c1c(-c2ccc(F)c(Cl)c2)n(S(=O)(=O)c2ccccc2)c2ccccc12` [Example 12, 2-{1-[2-(3-chloro-4-fluorophenyl)-1-(phenylsulfonyl)-1H-indol-3-yl]ethylidene}hydrazinecarboximidamide], the inhibition at 1 µM ([3H]-LSD 3.0 nM) is 75.6%.

Under setting [1], `CCCCS(=O)(=O)n1cc(C(=NNC(=N)N)C2CC2)c2ccc(F)cc21` [Example 105, 2-[[1-(butylsulfonyl)-6-fluoro-1H-indol-3-yl](cyclopropyl)methylidene]hydrazinecarboximidamide] gave an inhibition at 0.1 µM of 58.4%.

As to `CCCCC(=NNC(=N)N)c1cn(S(=O)(=O)c2ccc(OC)cc2)c2cc(F)ccc12` [Example 107, 2-(1-{6-fluoro-1-[(4-methoxyphenyl)sulfonyl]-1H-indol-3-yl}pentylidene)hydrazinecarboximidamide], the inhibition at 1 µM ([3H]-LSD 3.0 nM) was 61.5%.

Under setting [1], `COc1ccc(S(=O)(=O)n2cc(C(=NNC(=N)N)C3CC3)c3ccc(F)cc32)cc1OC` [Example 117, 2-(cyclopropyl{1-[(3,4-dimethoxyphenyl)sulfonyl]-6-fluoro-1H-indol-3-yl}methylidene)hydrazinecarboximidamide] showed an inhibition at 0.1 µM of 78.2%.

Under setting [1], `COc1ccc(Cl)cc1S(=O)(=O)n1cc(C(C)=NNC(=N)N)c2ccccc21` [Example 34, 2-(1-{1-[(5-chloro-2-methoxyphenyl)sulfonyl]-1H-indol-3-yl}ethylidene)hydrazinecarboximidamide] gave an inhibition at 0.1 µM of 48%.

For the setting “[3H]-LSD 3.0 nM”, `CS(=O)(=O)n1cc(C(=NNC(=N)N)C2CC2)c2ccc(F)cc21` [Example 102, 2-{cyclopropyl[6-fluoro-1-(methylsulfonyl)-1H-indol-3-yl]methylidene}hydrazinecarboximidamide] gave an inhibition at 0.01 µM of 41.1%.

`CC(=NNC(=N)N)c1cn(S(=O)(=O)c2cccc3nsnc23)c2ccccc12` [Example 24, 2-{1-[1-(2,1,3-benzothiadiazol-4-ylsulfonyl)-1H-indol-3-yl]ethylidene}hydrazinecarboximidamide] had an inhibition at 0.1 µM under setting [1] of 62.9%.

With `CCCCC(=NNC(=N)N)c1c(-c2ccc(Cl)cc2)n(S(C)(=O)=O)c2ccccc12` [Example 91, 2-{1-[2-(4-chlorophenyl)-1-(methylsulfonyl)-1H-indol-3-yl]pentylidene}hydrazinecarboximidamide], the inhibition at 1 µM ([3H]-LSD 3.0 nM) was found to be 9%.

As for `CCCCC(=NNC(=N)N)c1c(-c2ccc(Cl)cc2)n(S(=O)(=O)c2ccccc2)c2ccccc12` [Example 96, 2-{1-[2-(4-chlorophenyl)-1-(phenylsulfonyl)-1H-indol-3-yl]pentylidene}hydrazinecarboximidamide], the inhibition at 1 µM ([3H]-LSD 3.0 nM) was 20%.

As to `CC(=NNC(=N)N)c1c(-c2ccc(F)c(F)c2)n(S(=O)(=O)c2ccccc2)c2ccccc12` [Example 13, 2-{1-[2-(3,4-difluorophenyl)-1-(phenylsulfonyl)-1H-indol-3-yl]ethylidene}hydrazinecarboximidamide], the inhibition at 1 µM ([3H]-LSD 3.0 nM) came out at 86%.

With `CC(=NNC(=N)N)c1cn(S(=O)(=O)c2ccc(-c3cc(C(F)(F)F)n(C)n3)s2)c2ccccc12` [Example 45, 2-{1-[1-({5-[1-methyl-5-(trifluoromethyl)-1H-pyrazol-3-yl]thien-2-yl}sulfony)-1H-indol-3-yl]ethylidene}hydrazinecarboximidamide], under setting [1], the “% Inhibition” value came out at 23.5%.

`Cc1ccc(S(=O)(=O)n2cc(C=NNC3=NCCCN3)c3ccccc32)cc1` [Example 1, 1-[(4-methylphenyl)sulfonyl]-1H-indole-3-carboxaldehyde 1,4,5,6-tetrahydropyrimidin-2-ylhydrazone]: the inhibition at 1 µM ([3H]-LSD 3.0 nM) amounted to 56%.

As to `CC(=NNC(=N)N)c1cn(S(=O)(=O)c2cccc(Br)c2)c2ccccc12` [Example 32, 2-(1-{1-[(3-bromophenyl)sulfonyl]-1H-indol-3-yl}ethylidene)hydrazinecarboximidamide], the Ki turned out to be 0.026 µM. This molecule displayed an inhibition at 0.1 µM under setting [1] of 76.2%.

In turn, `CC(=NNC(=N)N)c1cn(S(=O)(=O)c2ccc(Br)s2)c2ccccc12` [Example 33, 2-(1-{1-[(5-bromothien-2-yl)sulfonyl]-1H-indol-3-yl}ethylidene)hydrazinecarboximidamide] displayed a Ki of 0.019 µM. The same molecule registered an inhibition at 0.1 µM under setting [1] of 76.4%.

For `CC(=NNC(=N)N)c1cn(S(=O)(=O)c2ccccc2)c2cc(F)ccc12` [Example 112, 2-{1-[6-fluoro-1-(phenylsulfonyl)-1H-indol-3-yl]ethylidene}hydrazinecarboximidamide], the inhibition at 1 µM ([3H]-LSD 3.0 nM) was found to be 94.6%.

On to `CCCCC(=NNC(=N)N)c1cn(S(=O)(=O)c2ccccc2)c2ccc(Cl)cc12` [Example 85, 2-{1-[5-chloro-1-(phenylsulfonyl)-1H-indol-3-yl]pentylidene}hydrazinecarboximidamide], for which, under setting [1], the inhibition at 0.1 µM is 57.5%.
